The values below come from patent US20090197853A1, “METHODS AND COMPOSITIONS OF TREATING CANCER” (priority 2005, published 2009).

In one experiment the test system is Thioredoxin reductase. The experiment can be described thus: Lipoate reduction (thioredoxin reductase activity) in intact A549 cells. The settings on record: for Inhibition of lipoate reduction: plateau phase A549, two-hour treatment. Format: cell-based, human. As for the experimental part:
Methods: Lipoate Reduction. Thioredoxin reductase activity was assessed by measuring the rate of lipoate reduction. In brief, A549 or PC3 cells (10,000 cells/well) were plated on 96-well plates and allowed to adhere overnight and grow two additional days until confluent. Cells were treated with MGd, zinc, or 5% mannitol for 2-4 hours, as indicated. Medium was removed, cells were washed with Hanks Balanced Salt Solution (HBSS), and a solution of 5 mM lipoic acid and 1 mM 5,5′-dithiobis(2-nitrobenzoic acid) in HBSS (100 μL/well) was added. Plates were incubated at ambient temperature in the dark. At chosen time intervals, plate absorbance was measured at 405-650 nm. Plate absorbances were normalized to wells containing neither exogenous zinc nor texaphyrin complex to allow plate-to-plate comparison. In some experiments, L-buthionine-[S,R]-sulfoximine (BSO, 100 μM) was added 24 hours prior to MGd or zinc treatment, to inhibit any contribution to lipoate reduction made by glutathione-dependent pathways (28). Actinomycin D (2.5 μg/mL) or cycloheximide (10 μg/mL), where present, was added 1 hour prior to texaphyrin or zinc treatment. Viability was checked on parallel plates using the tetrazolium dye 3-(4,5-dimethylthiazol-2-yl)-5-(3-carboxymethoxyphenyl)-2-(4-sulfophenyl)-2H-tetrazolium (MTS) following the manufacturers protocol (Promega Corp.).

The test system of experiment [1] is Ramos cells. As to the kind of experiment: Mitochondrial membrane potential (JC-1), Ramos. Conditions: single agent alone. It counts as cell-based. As for the experimental part:
Mitchondrial membrane potential. Loss of the mitochondrial membrane potential (ΔΨm) of cells was measured by the use of JC-1 (Molecular Probes, Inc., Eugene, Oreg.). Cells undergoing early apoptosis lose fluorescence in the 585 nm channel and gain it in the 530 nm channel. Briefly, cells cultured as described above were washed twice with complete medium, re-suspended in 0.5 mL JC-1 solution (10 μg/mL in complete medium), and incubated at 37° C. for 15 minutes. Cells were isolated by centrifugation, washed once and then re-suspended in 0.5 mL solution of 0.5% BSA in PBS and assayed immediately on the flow cytometer.

Experiment [2] has as its system Ramos cells. As to the kind of experiment: Annexin-V apoptosis, Ramos. Format: cell-based. The settings on record: single agent alone. As for the experimental part:
Methods: Annexin V/PI. Cells from exponential phase cultures were treated with MGd, zinc, or control (5% mannitol) solution for 24 or 48 hours. After incubation, cells were harvested and washed twice with a solution of 0.5% bovine serum albumin (BSA) in Hanks buffered saline (HBSS). An aliquot of cells (1×10^6) was added to 500 μL diluted binding buffer from the ANNEXIN-V PI Kit (BD Biosciences, San Jose, Calif.). Cells were pelleted, re-suspended in 100 μL of diluted binding buffer, and treated with the ANNEXIN-V PI reagent as per the manufacturer's protocol.

For experiment [3], the system named is Ramos cells. As to the kind of experiment: Intracellular free zinc (FluoZin-3 fluorescence), Ramos. Format: cell-based. The settings on record: 10 μM MGd or 50 μM zinc alone. As to the method:
Methods: Intracellular Free Zinc. The concentration of intracellular free zinc was assessed using the ion-specific fluorescent probe, FluoZin-3-AM™ (FluoZin-3, Molecular Probes, Inc.). […] Following treatment, cells were isolated by centrifugation. Cell pellets were washed and re-suspended in a solution of 0.5% BSA in PBS.

Experiment [4] deals with Ramos B-cell lymphoma cells. The experiment can be described thus: Proliferation, Ramos. It counts as cell-based. Conditions: 50 μM zinc. As for the experimental part: (§1) Methods: The proliferation of exponential phase cultures was assessed by colorimetric assay. In brief, 2×10^5 suspension cells per well were seeded on 96-well V-bottom microtiter plates. Stock solutions of control vehicle, MGd or Zn(OAc)2 in medium were added and plates were incubated at 37° C. under a 5% CO2/95% air atmosphere. After 24 hours, medium was replaced with fresh medium. After 2 additional days, medium was exchanged with fresh medium (150 μL/well) supplemented with 3-(4,5-dimethylthiazol-2-yl)-2,5-diphenyltetrazolium bromide (MTT, 0.5 mg/mL, Sigma Biochemical, St. Louis, Mo.). Plates were incubated at 37° C. and viable cells measured.
as §1, with “Cellular Proliferation—The” for “Methods: The”

A further experiment deals with A549 cells. The experiment can be described thus: Proliferation (tetrazole reduction/MTT), A549. It counts as cell-based, human. Conditions: for A549 cell proliferation: exponential phase, 24 hours treatment plus 48 hr growth, zinc up to 100 μM. As for the experimental part: as §1
For experiment [5], the system named is PC3 cells. The experiment can be described thus: Proliferation, PC3. It counts as cell-based. As for the experimental part: as §1
Experiment [6] relates to Ramos cells. As to the kind of experiment: Reactive oxygen species (DCFA to DCF), Ramos. It counts as cell-based. Conditions: single agents. As for the experimental part:
Methods: Reactive oxygen species were measured in live cells as intracellular peroxides by monitoring the oxidation of 2′,7′-dichlorofluorescin-diacetate (DCFA) to 2′,7′-dichlorofluorescein (DCF) (Molecular Probes). Cells (1×10^6 per mL) were incubated in a solution of 1 μg per mL DCFA in 0.5% BSA in HBSS for 15 minutes at 37° C. Two mL additional 0.5% BSA in HBSS was added, cells were isolated by centrifugation, and the pellet re-suspended in a solution of 50 μg/mL 7-aminoactinomycin D (7-AAD) in 0.5% BSA in HBSS. Cell suspensions were incubated at ambient temperature for 2 to 3 minutes, and stored on ice until analysis. The fluorescent intensity in live (i.e., 7-AAD impermeable) cells was analyzed by flow cytometry.

Experiment [7] concerns Ramos, Raji, DB, DHL-4, HF-1, Jurkat, K562 and HL-60 cell lines. The experiment can be described thus: Proliferation of hematologic cell lines. Conditions: for Effect on proliferation: low concentrations of zinc or MGd alone. It counts as cell-based. As to the method:
as §1, with “Cellular Proliferation—The” for “Methods: The”

Experiment [8] relates to PC3 cells. The experiment can be described thus: Colony forming assay, PC3. Format: cell-based. The settings on record: 10 μM MGd, 75 μM zinc.

On to `CC(=O)[O-].CC(=O)[O-].CCc1c(CC)c2cc3nc(cnc4cc(OCCOCCOCCOC)c(OCCOCCOCCOC)cc4ncc4nc(cc1[n-]2)C(CCCO)=C4C)C(C)=C3CCCO.O.[Gd+3]` [MGd, Motexafin gadolinium], for which, in the experiment with Thioredoxin reductase (A549), the “Effect of MGd on inhibition of lipoate reduction by zinc” value was “potentiated”. Besides, the “Apparent inhibitory concentration of MGd” value in the experiment on Thioredoxin reductase (A549, dose-dependent effect of MGd on inhibition with zinc) is “approximately 2.5 μM”. Also, the “Concentration above which the effect of MGd on lipoate reduction saturated” value with Thioredoxin reductase (A549, potentiation of zinc inhibition) is recorded as “approximately 5 μM”. In addition, in the experiment with Thioredoxin reductase, the “Inhibition of lipoate reduction” value is “approximately 10%”. In addition, the JC-1 fluorescence entry with Ramos cells [1] was “No significant change”. The Annexin-V signal result in the experiment with Ramos cells [2] is given as “No significant change”. Moreover, the FluoZin-3 fluorescence entry in the experiment with Ramos cells [3] (by 12 hours) was “returned to baseline levels”. The FluoZin-3 fluorescence result with Ramos cells [3] (within 2 hours) is “small increases”. Also, the Cellular proliferation entry in [4] is on record as “without effect”. In the experiment with A549 cells (A549, all MGd concentrations tested), the “Effect of MGd on the anti-proliferative activity of zinc” value is on record as “enhanced the anti-proliferative activity of zinc”. The A549 cell proliferation result in the experiment on A549 cells is “no effect on proliferation”. The “Effect of MGd on the effect of zinc on proliferation” value in the experiment with PC3 cells [5] (PC3) was “enhanced the effect of zinc”. Besides, the DCF signal result in the experiment with Ramos cells [6] was “increased DCF signal”. In addition, in experiment [7] (all cell lines), the “Effect of MGd on sensitivity to zinc (proliferation)” value was “increased” and the Effect on proliferation result is “no significant effect”. The “Effect of MGd co-treatment on the inhibition of proliferation by zinc” value in experiment [7] (all lines except HL60) is recorded as “potentiated the inhibition by zinc”. Besides, in the experiment with PC3 cells [8], the Surviving fraction result was “without effect”.

Consider `CC(=O)[O-].CC(=O)[O-].[Zn+2]` [Zn(OAc)2, Zinc acetate], for which, in the experiment on Thioredoxin reductase, the “Inhibition of lipoate reduction” value was no more than 30%. Further, in the experiment with Ramos cells [1], the JC-1 fluorescence entry was “No significant change”. In the experiment on Ramos cells [2], the Annexin-V signal result is reported as “No significant change”. Moreover, the FluoZin-3 fluorescence result in the experiment with Ramos cells [3] (by 12 hours) is recorded as “returned to baseline levels”; in the experiment with Ramos cells [3] (within 2 hours), “small increases”. Also, the Cellular proliferation result in [4] is given as “without effect”. In the experiment on A549 cells, the A549 cell proliferation entry is “modestly inhibited”. Further, the PC3 cell proliferation entry in the experiment on PC3 cells [5] is “inhibited”. In the experiment on Ramos cells [6], the DCF signal result is recorded as “increased DCF signal”. For the same molecule, the Proliferation entry in experiment [7] (50 to 100 μM zinc, four additional B-cell lines, K562, Jurkat) is “inhibited the proliferation”. Moreover, the Effect on proliferation entry in experiment [7] (all cell lines) is on record as “no significant effect”. Also, the Surviving fraction result with PC3 cells [8] is “without effect”.
